Assay results published in US20250144067A1, “PERSONALIZED STARVATION THERAPY FOR CANCER” (Faeth Therapeutics, Inc., priority 2021, published 2025).
Where a name gives a salt, the structure may show the parent alone. Read-outs that look alike come from different tables or passages of the source.

What was measured:
[1] = system: NCI-H292 lung cancer cells; experiment: FDA drug screening, complete media vs cholesterol-free media without statin (TABLE 1); format: cell-based, human
[2] = system: NCI-H292 lung cancer cells; experiment: FDA drug screening, complete media vs cholesterol-free media with simvastatin (TABLE 2); format: cell-based, human
[3] = NCI-H292 cells, cholesterol-free media without statin
[4] = complete vs cholesterol-free media, greater than 0 enhanced anti-cancer activity, about 0 neutral, below 0 antagonists
[5] = NCI-H292 cells, FDA drug library screen, cholesterol-free media with simvastatin 0.04 μM
[6] = NCI-H292 cells, FDA drug library screen, complete media
[7] = complete media minus cholesterol-free media + simvastatin, >0 enhanced anti-cancer activity, about 0 neutral, <0 antagonist
[8] = Complete minus Cholesterol-free, […]
[9] = NCI-H292 cells, FDA drug library screen, cholesterol-free media without statin
[10] = complete media vs cholesterol-free media + simvastatin (0.04 μM), […]
[11] = NCI-H292 cells, cholesterol-free media with simvastatin 0.04 μM, FDA drug library screen (TABLE 2)
[12] = NCI-H292 cells, complete media, FDA drug library screen (TABLE 2)
[13] = complete media minus cholesterol-free media + simvastatin (0.04 μM), >0 enhanced anti-cancer activity, about 0 neutral, <0 antagonist
[14] = Complete minus Cholesterol-free, greater than 0 enhanced anti-cancer activity, about 0 neutral, below 0 antagonists
[15] = NCI-H292 cells in cholesterol-free media without statin
[16] = NCI-H292 cells in complete media
[17] = complete media vs cholesterol-free media + simvastatin (0.04 μM), >0 enhanced anti-cancer activity, about 0 neutral, <0 antagonist
[18] = NCI-H292 cells, drug in cholesterol-free media with simvastatin 0.04 μM
[19] = NCI-H292 cells, drug in complete media
[20] = Complete minus Cholesterol-free, >0 enhanced anti-cancer activity, about 0 neutral, <0 antagonist
[21] = NCI-H292 cells, cholesterol-free media without statin, FDA drug library screen
[22] = NCI-H292 cells, complete media, FDA drug library screen

CCc1cccc2c3c([nH]c12)C(CC)(CC(=O)O)OCC3 (centres unmarked) [Etodolac]
Cholesterol-free [1, 3]: 1.251
Complete ([1]; NCI-H292 cells, complete media): 0.9193
Difference [1, 4]: −0.33
Cholesterol-free media + simvastatin (0.04 μM) [2, 5]: 0.9939
Complete Media [2, 6]: 1.145
Difference [2, 7]: 0.15

CCC(=O)Oc1ccc2c(c1)CC[C@@H]1[C@@H]2CC[C@]2(C)[C@@H](OC(=O)CC)CC[C@@H]12 [Estradiol dipropionate]
Difference [1, 8]: −0.07
Cholesterol-free [1, 9]: 0.9963
Complete [1, 6]: 0.9247
Cholesterol-free media + simvastatin (0.04 μM) ([2]; NCI-H292 cells, FDA library drug in cholesterol-free media with simvastatin 0.04 μM): 1.891
Complete Media ([2]; NCI-H292 cells, FDA library drug in complete media): 1.522
Difference [2, 10]: −0.37

O=C(O)CCCC[C@@H]1SC[C@@H]2NC(=O)N[C@@H]21 [Biotin]
Cholesterol-free [1]: 1.067
Complete [1]: 0.6067
Difference [1]: −0.46
Cholesterol-free media + simvastatin (0.04 μM) [2]: 1.06
Complete Media [2]: 0.9767
Difference [2]: −0.08

C=CC(=O)N1CCC[C@@H](n2nc(-c3ccc(Oc4ccccc4)cc3)c3c(N)ncnc32)C1 (racemic) [Ibrutinib (Racemate)]
Cholesterol-free [1, 3]: 1.242
Complete ([1]; NCI-H292 cells, complete media): 0.9233
Difference [1, 4]: −0.32
Cholesterol-free media + simvastatin (0.04 μM) [2, 11]: 0.346
Complete Media [2, 12]: 0.2858
Difference [2, 13]: −0.06

CN(C)N(C)C(=O)[C@@]1(Cc2ccccc2)CCCN(C(=O)[C@@H](Cc2c[nH]c3ccccc23)NC(=O)C(C)(C)N)C1 [Anamorelin (hydrochloride)]
Difference [1, 14]: −0.93
Cholesterol-free [1, 15]: 1.922
Complete [1, 16]: 0.9877
Cholesterol-free media + simvastatin (0.04 μM) [2, 11]: 1.088
Complete Media [2, 12]: 1.064
Difference [2, 13]: −0.02

CC[C@H]1OC(=O)[C@H](C)[C@@H](O[C@H]2C[C@@](C)(OC)[C@@H](O)[C@H](C)O2)[C@H](C)[C@@H](O[C@@H]2O[C@H](C)C[C@H](N(C)C)[C@H]2O)[C@](C)(OC)C[C@@H](C)C(=O)[C@H](C)[C@@H](O)[C@]1(C)O [Clarithromycin]
Difference [1, 14]: −0.74
Cholesterol-free [1, 15]: 1.607
Complete [1, 16]: 0.8616
Cholesterol-free media + simvastatin (0.04 μM) [2, 5]: 1.214
Complete Media [2, 6]: 1.064
Difference [2, 17]: −0.15

Cc1cccc(Cc2c[nH]cn2)c1C [Detomidine (hydrochloride)]
Difference [1, 14]: −0.47
Cholesterol-free [1, 15]: 1.106
Complete [1, 16]: 0.6322
Cholesterol-free media + simvastatin (0.04 μM) [2, 5]: 1.019
Complete Media [2, 6]: 0.9319
Difference [2, 17]: −0.09

O=C(O)[C@H](CC(=O)N1C[C@H]2CCCC[C@H]2C1)Cc1ccccc1 [Mitiglinide (Calcium)]
Difference [1, 14]: −0.81
Cholesterol-free [1, 15]: 1.668
Complete [1, 16]: 0.8559
Cholesterol-free media + simvastatin (0.04 μM) [2, 18]: 1.855
Complete Media [2, 19]: 1.594
Difference [2, 17]: −0.26

Setiptiline (maleate)
Difference [1, 20]: 0.02
Cholesterol-free [1, 21]: 0.9606
Complete [1, 22]: 0.9832
Cholesterol-free media + simvastatin (0.04 μM) [2, 18]: 1.022
Complete Media [2, 19]: 0.7709
Difference [2, 17]: −0.25

COc1ccc2[n-]c([S+]([O-])Cc3ncc(C)c(OC)c3C)nc2c1.[Na+] (centres unmarked) [Omeprazole (sodium)]
Difference [1, 20]: −0.07
Cholesterol-free [1, 21]: 0.7641
Complete [1, 22]: 0.6989
Cholesterol-free media + simvastatin (0.04 μM) [2, 11]: 0.9544
Complete Media [2, 12]: 0.9688
Difference [2, 13]: 0.01

Heparin (sodium salt) (MW 15 kDa)
Difference [1, 8]: −0.29
Cholesterol-free [1, 3]: 1.451
Complete ([1]; NCI-H292 cells, complete media): 1.156
Complete Media [2, 6]: 1.339
Difference ([2]; complete media minus cholesterol-free media + simvastatin, […]): 0.23

O=C(NC1CCN(CCCCC2(C(=O)NCC(F)(F)F)c3ccccc3-c3ccccc32)CC1)c1ccccc1-c1ccc(C(F)(F)F)cc1 [Lomitapide]
Difference [1, 20]: −0.25
Cholesterol-free [1, 3]: 0.9551
Complete ([1]; NCI-H292 cells, complete media): 0.7097
Cholesterol-free media + simvastatin (0.04 μM) [2, 18]: 1.325
Complete Media [2, 19]: 1.07
Difference [2, 17]: −0.25

CC(C)N(CC[C@H](c1ccccc1)c1cc(CO)ccc1O)C(C)C [Desfesoterodine]
Cholesterol-free [1, 21]: 0.7501
Complete [1, 22]: 1.3
Difference ([1]; complete vs cholesterol-free media, […]): 0.55
Cholesterol-free media + simvastatin (0.04 μM) [2, 18]: 1.01
Complete Media [2, 19]: 0.8395
Difference [2, 10]: −0.17

O=C(O)[C@@H](S)[C@@H](S)C(=O)O [Succimer]
Cholesterol-free [1, 3]: 1.406
Complete ([1]; NCI-H292 cells, complete media): 0.9576
Difference [1, 4]: −0.45
Cholesterol-free media + simvastatin (0.04 μM) [2, 18]: 1.252
Complete Media [2, 19]: 1.035
Difference [2, 17]: −0.22

CC(C)OC(=O)[C@H](C)N[P@](=O)(CO[C@H](C)Cn1cnc2c(N)ncnc21)Oc1ccccc1 [Tenofovir alafenamide]
Cholesterol-free [1]: 1.21
Complete [1]: 0.7227
Difference [1]: −0.49
Cholesterol-free media + simvastatin (0.04 μM) [2]: 0.7269
Complete Media [2]: 0.65
Difference [2]: −0.08

Tenofovir alafenamide hemifumarate
Cholesterol-free [1]: 0.4256
Complete [1]: 0.5492
Difference [1]: 0.12
Cholesterol-free media + simvastatin (0.04 μM) [2]: 0.5107
Complete Media [2]: 0.4195
Difference [2]: −0.09

O.O.O=C([O-])CC(O)(CC(=O)[O-])C(=O)[O-].[Na+].[Na+].[Na+] [Sodium citrate (dihydrate)]
Cholesterol-free [1]: 0.7144
Complete [1]: 0.9967
Difference [1]: 0.28
Cholesterol-free media + simvastatin (0.04 μM) [2]: 1.04
Complete Media [2]: 1.108
Difference [2]: 0.07

Cc1nc(Nc2ccc(F)cc2)nc(N2CCc3ccccc3C2C)c1C (centres unmarked) [Revaprazan (hydrochloride)]
Cholesterol-free [1, 21]: 1.192
Complete [1, 22]: 1.344
Difference ([1]; complete vs cholesterol-free media, >0 enhanced anti-cancer activity, about 0 neutral, <0 antagonist): 0.15
Cholesterol-free media + simvastatin (0.04 μM) [2, 11]: 1.005
Complete Media [2, 12]: 0.9357
Difference [2, 13]: −0.07

COc1cccc2c1C(=O)c1c(O)c3c(c(O)c1C2=O)C[C@@](O)(C(=O)CO)C[C@@H]3O[C@H]1C[C@H](N)[C@H](O[C@@H]2CCCCO2)[C@H](C)O1 [Pirarubicin (Hydrochloride)]
Difference [1, 8]: −0.09
Cholesterol-free [1, 9]: 0.6484
Complete [1, 6]: 0.5605
Cholesterol-free media + simvastatin (0.04 μM) [2, 11]: 0.5554
Complete Media [2, 12]: 0.5244
Difference ([2]; complete media minus cholesterol-free media + simvastatin (0.04 μM), […]): −0.03

O=[N+]([O-])C(Br)(CO)CO [Bronopol]
Difference [1, 14]: −0.52
Cholesterol-free [1, 15]: 1.461
Complete [1, 16]: 0.9389
Cholesterol-free media + simvastatin (0.04 μM) ([2]; NCI-H292 cells, cholesterol-free media with simvastatin 0.04 μM, cell growth value in FDA drug screen): 0.8221
Complete Media ([2]; NCI-H292 cells, complete media, cell growth value in FDA drug screen): 0.9082
Difference [2, 7]: 0.09

Cc1nc(C)c(C)nc1C [Ligustrazine (hydrochloride)]
Difference [1, 20]: −0.06
Cholesterol-free [1, 21]: 1.047
Complete [1, 22]: 0.9829
Cholesterol-free media + simvastatin (0.04 μM) [2, 18]: 1.229
Complete Media [2, 19]: 1.02
Difference [2, 17]: −0.21

CCCN[C@@H]1CCc2nc(N)sc2C1 [Dexpramipexole (dihydrochloride)]
Cholesterol-free [1, 3]: 0.9915
Complete ([1]; NCI-H292 cells, complete media): 0.5799
Difference [1, 4]: −0.41
Cholesterol-free media + simvastatin (0.04 μM) [2, 11]: 1.099
Complete Media [2, 12]: 1.11
Difference [2, 13]: 0.01
